Laboratory results: article PMC11645656, “MRGPRX4 mediates phospho-drug associated pruritus in a humanized mouse model” (Science translational medicine, 2024)
“And” between values parts separate entries of the source, which are not always exact repeats. Identical values can stand only once.

Biological target: T1, MRGPRX4 (S83) (Homo sapiens, UniProt Q96LA9, L83S)
T1 construct: expressed in transfected cells
Assay: EC50 determination, intracellular calcium mobilization in MRGPRX4 stably expressed HEK293 cells (FLIPR Calcium 5, Flexstation-3)
Type: cell-based
Design: Fig. 1D dose-response, calcium mobilization response (individual replicate) / calcium mobilization response (Fig. 1D dose-response raw data): unit not given here
Conditions: for EC50: MRGPRX4 stably expressed HEK293 cells, calcium mobilization, read-out: EC50; for Hill coefficient: dose-response curve fitting, table S1; for calcium mobilization response (Fig. 1D dose-response raw data) / Fig. 1D dose-response, calcium response at Concentration (M): individual replicate values; for Fig. 1D dose-response, calcium response at Concentration (M): propofol series
Method: HEK293 cells and MRGPRX4 stably expressed HEK293 cells were seeded in 100 μl culture media on 96-well plates at a density of 40,000 cells per well and incubated overnight. The next day, the media were replaced with a dye-loading solution from the FLIPR Calcium 5 assay kit (Molecular Devices), diluted in Hank's Balanced Salt Solution (HBSS) with 20 mM HEPES, pH 7.4. After 1 h of incubation at 37°C, cells were allowed to recover for 10 min in the dark at room temperature prior to performing intracellular calcium mobilization assay in a Flexstation-3 instrument with SoftMax®Pro 7.1 software (Molecular Devices). Serial concentrations of tested drugs were prepared in HBSS/HEPES solution at 3X concentration. […] Compounds were tested in triplicates and the signals were averaged. Responses were determined by subtracting the minimum signal (at the baseline before adding the drug) from the maximum signal (obtained after drug stimulation). Four-parameter logistic (4PL) curve fit was used to plot the dose-response curves. […] Both dose-response curve fitting and EC50s calculation are computed with GraphPad Prism software (version: 6.o or above).

T1 sequence (Q96LA9 whole entry L83S): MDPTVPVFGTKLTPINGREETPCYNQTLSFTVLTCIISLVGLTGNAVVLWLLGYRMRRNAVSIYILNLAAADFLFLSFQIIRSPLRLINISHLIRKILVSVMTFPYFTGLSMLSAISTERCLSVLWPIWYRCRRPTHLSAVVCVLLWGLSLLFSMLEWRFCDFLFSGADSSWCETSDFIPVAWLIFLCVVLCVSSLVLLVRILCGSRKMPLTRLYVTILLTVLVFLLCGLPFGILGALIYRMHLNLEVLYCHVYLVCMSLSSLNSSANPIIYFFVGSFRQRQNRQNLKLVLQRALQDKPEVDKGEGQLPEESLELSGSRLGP

SMILES | EC50 [µM] | Hill coefficient | calcium mobilization response (Fig. 1D dose-response raw data) (concentration 4.88281e-7 M) | calcium mobilization response (Fig. 1D dose-response raw data) (concentration 9.76563e-7 M) | calcium mobilization response (Fig. 1D dose-response raw data) (concentration 1.95313e-6 M) | calcium mobilization response (Fig. 1D dose-response raw data) (concentration 3.90625e-6 M) | calcium mobilization response (Fig. 1D dose-response raw data) (concentration 7.8125e-6 M) | calcium mobilization response (Fig. 1D dose-response raw data) (concentration 1.5625e-5 M) | calcium mobilization response (Fig. 1D dose-response raw data) (concentration 3.125e-5 M) | calcium mobilization response (Fig. 1D dose-response raw data) (concentration 6.25e-5 M) | calcium mobilization response (Fig. 1D dose-response raw data) (concentration 0.00025 M) | calcium mobilization response (Fig. 1D dose-response raw data) (concentration 0.0005 M) | other results
CNC[C@H](O)[C@@H](O)[C@H](O)[C@H](O)CO.CNC[C@H](O)[C@@H](O)[C@H](O)[C@H](O)CO.C[C@@H](O[C@H]1OCCN(Cc2nn(P(=O)(O)O)c(=O)[nH]2)[C@H]1c1ccc(F)cc1)c1cc(C(F)(F)F)cc(C(F)(F)F)c1 [Fosaprepitant dimeglumine] | 7 | 3.670 |  |  |  |  |  |  |  |  |  |  | 
O=C1NC(=O)C(c2ccccc2)(c2ccc(O)cc2)N1 (centres unmarked) [Hydroxyphenytoin] |  |  | -38.335 and -44.136 and -38.604 and -53.703 and -53.375 | -21.881 and -18.856 and -41.417 and -3.943 and -41.401 | -33.904 and -36.161 and -55.798 and -55.451 and -16.637 | -41.290 and -41.879 and -47.340 and -95.401 and -28.834 | -43.390 and -45.131 and -40.251 and -36.055 and -69.327 | -49.874 and -56.147 and -54.231 and -13.701 and -87.936 | -55.112 and -52.780 and -54.634 and -28.441 and -50.624 | -46.992 and -52.460 and -54.562 and -23.886 and -26.540 | -50.524 and -46.583 and -49.203 and -70.603 and -7.273 | -43.005 and -35.783 and -32.491 and -3.926 and -40.291 | Fig. 1D dose-response, calcium mobilization response (individual replicate) (Concentration 9.76563e-7 M): -13.997 and -18.908 and -71.107 and -31.060; Fig. 1D dose-response, calcium mobilization response (individual replicate) (Concentration 1.95313e-6 M): -36.810 and -38.751 and -15.180 and -28.223; Fig. 1D dose-response, calcium mobilization response (individual replicate) (Concentration 3.90625e-6 M): -53.775 and -34.726 and -87.092 and -4.044; Fig. 1D dose-response, calcium mobilization response (individual replicate) (Concentration 7.8125e-6 M): -6.273 and -4.175 and -11.050 and -115.284; Fig. 1D dose-response, calcium mobilization response (individual replicate) (Concentration 1.5625e-5 M): -23.391 and -58.915 and -49.315 and -20.542; Fig. 1D dose-response, calcium mobilization response (individual replicate) (Concentration 3.125e-5 M): -58.615 and -86.247 and -12.733 and -61.272; Fig. 1D dose-response, calcium mobilization response (individual replicate) (Concentration 6.25e-5 M): -83.462 and -33.574 and -53.783 and -75.169; Fig. 1D dose-response, calcium mobilization response (individual replicate) (Concentration 0.00025 M): -7.298 and -62.458 and -53.853 and -44.871; Fig. 1D dose-response, calcium mobilization response (individual replicate) (Concentration 0.0005 M): -68.434 and -44.648 and -66.219 and -35.443; Fig. 1D dose-response, calcium mobilization response (individual replicate) (Concentration 0.001 M): -67.062 and -39.432 and -24.454 and -47.392
C[C@]12CCC(=O)C=C1CC[C@@H]1[C@@H]2[C@@H](O)C[C@@]2(C)[C@H]1CC[C@]2(O)C(=O)COP(=O)([O-])[O-].[Na+].[Na+] [Hydrocortisone sodium phosphate] | 0.328 | 1.411 |  |  |  |  |  |  |  |  |  |  | 
CCC1(c2ccccc2)NC(=O)NC1=O (centres unmarked) [Phenylethylhydantoin] |  |  | -36.084 and -46.830 and -25.168 and -25.995 and -41.232 and -40.854 and -21.141 and -50.216 and -36.724 | -38.906 and -40.253 and -36.747 and -35.963 and -45.530 and -34.413 and -90.977 and -3.770 and -21.159 | -39.850 and -47.267 and -41.649 and -23.282 and -47.762 and -57.722 and -64.532 and -47.904 and -16.330 | -41.691 and -47.727 and -40.039 and -70.885 and -55.070 and -3.502 and -50.619 and -10.963 and -67.875 | -54.750 and -48.340 and -51.910 and -49.343 and -57.168 and -48.489 and -88.910 and -37.952 and -28.139 | -44.078 and -57.965 and -55.228 and -49.591 and -44.073 and -63.607 and -50.842 and -52.493 and -53.936 | -43.665 and -49.381 and -54.677 and -65.107 and -76.615 and -6.000 and -68.649 and -47.158 and -31.916 | -55.764 and -53.161 and -56.227 and -7.830 and -129.161 and -28.161 and -12.225 and -71.995 and -80.931 | -45.731 and -49.520 and -42.661 and -67.761 and -17.367 and -52.783 and -55.357 and -16.011 and -66.544 | -37.983 and -36.120 and -36.080 and -77.623 and -5.808 and -26.753 and -42.653 and -37.379 and -30.151 | 
CC(C)c1cccc(C(C)C)c1O[C@@H]1O[C@H](C(=O)O)[C@@H](O)[C@H](O)[C@H]1O [Propofol b-D-glucuronide] |  |  |  |  |  |  |  |  |  |  |  |  | Fig. 1D dose-response, calcium response at Concentration (M) (9.76563e-7 M): 33.404 and 17.610 and 15.299 and 5.092 and 25.748 and 35.472 and 37.279 and 14.971 and 14.062; Fig. 1D dose-response, calcium response at Concentration (M) (1.95313e-6 M): 24.553 and 28.290 and 26.471 and 25.162 and 11.839 and 42.312 and 38.770 and 25.122 and 15.422; Fig. 1D dose-response, calcium response at Concentration (M) (3.90625e-6 M): -0.931 and -0.509 and -0.147 and -0.531 and -0.497 and -0.558 and -1.252 and -0.171 and -0.163; Fig. 1D dose-response, calcium response at Concentration (M) (7.8125e-6 M): -3.944 and -3.544 and -1.450 and -3.087 and -3.091 and -2.761 and -3.250 and -1.367 and -4.322; Fig. 1D dose-response, calcium response at Concentration (M) (1.5625e-5 M): -14.193 and -2.564 and -12.325 and -15.196 and -3.788 and -10.098 and -11.561 and -10.981 and -6.540; Fig. 1D dose-response, calcium response at Concentration (M) (3.125e-5 M): -0.025 and -0.623 and -1.002 and -0.534 and -0.882 and -0.234 and -0.728 and -0.769 and -0.154; Fig. 1D dose-response, calcium response at Concentration (M) (6.25e-5 M): -11.462 and -7.089 and -18.181 and -19.274 and -11.464 and -5.994 and -9.636 and -15.344 and -11.752; Fig. 1D dose-response, calcium response at Concentration (M) (0.00025 M): -8.452 and -1.759 and -25.311 and -28.879 and -1.342 and -5.301 and -7.817 and -14.781 and -12.923; Fig. 1D dose-response, calcium response at Concentration (M) (0.0005 M): -2.705 and -17.232 and -3.163 and -5.843 and -6.495 and -10.762 and -7.609 and -4.103 and -11.388; Fig. 1D dose-response, calcium response at Concentration (M) (0.001 M): -9.560 and -7.574 and -9.738 and -14.721 and -4.551 and -7.600 and -11.650 and -7.050 and -8.173
